Test results: patent EP0140270A2 (priority 1983, dated 1985)
Read-outs that look alike come from different tables or passages of the source.

Legend:
Assay type in all cases: in vivo
[1] = test system: Pyricularia oryzae; details: systemic; 40 ml preparation poured on soil of young rice plants; inoculated 7 days after treatment; evaluated 4 days after inoculation; compared with prior art (Zinkethylen-1,2-bis-dithiocarbamat)
[2] = test system: Pyricularia oryzae; details: protective; young rice plants sprayed to dripping wet, then inoculated; evaluated 4 days after inoculation; compared with prior art (Zinkethylen-1,2-bis-dithiocarbamat)
[3] = test system: Phytophthora infestans; details: curative; young tomato plants inoculated, sprayed after 7 hours incubation; evaluated 3 days after inoculation; compared with prior art (Zinkethylen-1,2-bis-dithiocarbamat)

C#CC(C)(C)C(C(=O)OC)C(=O)OC [Beispiel 1, 3,3-Dimethyl-2-methoxycarbcnyL-pent-4-insäuremethylester]
Wirksamkeit (Krankheitsbefall) [1]: deutliche Überlegenheit in der Wirksamkeit gegenüber dem Stand der Technik

C#CC(C)(C)C(C(=O)O)C(=O)OCC (centres unmarked) [Beispiel 2, 3,3-Dimethyl-2-ethoxycarbonyl-pent-4-insäure]
Wirksamkeit (Krankheitsbefall) [2]: deutliche Überlegenheit in der Wirksamkeit gegenüber dem Stand der Technik
Wirksamkeit (Krankheitsbefall) [1]: deutliche Überlegenheit in der Wirksamkeit gegenüber dem Stand der Technik

C#CC(C)(C)C(C(N)=O)C(=O)OCC (centres unmarked) [Beispiel 3, 3,3-Dimethyl-2-etrcry-carbonyl-pent-4-insaureamid]
Wirksamkeit (Krankheitsbefall) [2]: deutliche Überlegenheit in der Wirksamkeit gegenüber dem Stand der Technik
Wirksamkeit [3]: deutliche Überlegenheit in der Wirksamkeit gegenüber dem Stand der Technik

CCOC(=O)CC(C)(C)C#CC(=O)OCCI [Beispiel 4, 3,3-DimethyL-5-iodethoxycarbonyl-pent-4-insäureethylester]
Wirksamkeit (Krankheitsbefall) [2]: deutliche Überlegenheit in der Wirksamkeit gegenüber dem Stand der Technik
Wirksamkeit (Krankheitsbefall) [1]: deutliche Überlegenheit in der Wirksamkeit gegenüber dem Stand der Technik

C#CC(C)(C)C(C(=O)OCC)C(=O)OCC [Beispiel 20, 3,3-Dimethyl-2-ethoxycarbonyl-pent-4-insäureethylester]
Wirksamkeit (Krankheitsbefall) [1]: deutliche Überlegenheit in der Wirksamkeit gegenüber dem Stand der Technik
